“Also recorded” adds a separate entry of the source. Read-outs that look alike come from different tables or passages of the source.
Columns and labels:
hNav1.5 sodium channel [1] = biological target: T1, hNav1.5 sodium channel (Homo sapiens, UniProt Q14524); assay: Nav1.5 sodium channel whole-cell membrane clamp in CHL cells
From the text: (§3) Nav1.5: CHL cells stably expressing hNav1.5 sodium channel was used to record hNav1.5 sodium channel currents by whole-cell membrane clamp technique at room temperature. The glass microelectrodes were made from glass electrode blanks (BF150-86-10, Sutter) by pulling through a puller, and the tip resistance was about 2-5 MΩ after filling the electrode with internal fluid, and the glass microelectrodes were connected to Axopatch 200B (Molecular Devices) membrane clamp amplifier by inserting the glass microelectrodes into the amplifier probe. Clamp voltage and data recording were controlled and recorded by pClamp 10 software via a computer with a sampling frequency of 10 kHz and a filtering frequency of 2 kHz. After obtaining whole-cell recordings, the cells were clamped at −80 mV, given a hyperpolarizing voltage of 200 ms to −120 mV, and then depolarized to −20 mV for 20 ms to evoke a Nav1.5 current. This voltage stimulus was given every 10 s; after the hNav1.5 sodium current was determined to be stabilized (for at least 1 min), begins the dosing process. Concentrations of the sample to be tested were administered continuously starting from low test concentration, and each test concentration was given for 1 min to reach steady state of action or for a maximum of 3 min. A minimum of 3 cells (n≥3) were tested at each concentration of the sample to be tested, and a minimum of 2 cells (n≥2) were tested at each concentration of the positive control.
(§4) Extracellular fluid formulation (mM): 140 NaCl, 5 KCl, 1 CaCl2, 1.25 MgCl2, 10 HEPES and 10 Glucose, adjusting the pH to 7.4 with NaOH.
(§5) Intracellular fluid formulation (mM): 130 CsF, 10 NaCl, 10 EGTA and 10 HEPES, adjusting the pH to 7.2 with CsOH.

[2] = tested on: A549 lung epithelial cells; assay: Anti TGF-β1-induced fibrosis assay in A549 lung epithelial cells (microscopy, Western Blot); assay type: cell-based; details: 10 ng/ml TGF-β1, 1 μM compound
Procedure: Cell injury was observed by microscopic observation; cell viability was analyzed by CCK-8 assay; and protein expression levels of fibrosis-related indicators were detected by Western Blot method. A549 cells were purchased from ATCC; CCK-8 kit was purchased from Meilunbio, item number MA0218-3; TGF-β1 was purchased from MCE, item number HY-P70543; primary antibodies: Collagen was purchased from ARG21965, item no. arigobio; α-smooth muscle actin was purchased from CST, item no. mAb #19245; VIMENTN was purchased from CST, item no. mAb #5741; GAPDH was purchased from Yeasen, item no. 30201ES20.
(§1) Experimental methods: first, 8000 cells/well A549 cells were placed in 96-well plates and incubated overnight. On the second day, 0.1% DMSO was added to the control cells, 10 ng/ml TGF-β1 as well as 0.1% DMSO was added to the model group, 10 ng/ml TGF-β1 as well as 1 μM of the compounds (oxy, 1, 2, tet, 3, 4, 6, 58) was added to the treatment group, and the 96-well plates were sterilized and incubated in a constant temperature incubator for 72 hours. Finally, cell injury and growth were observed using a microscope; the viability of the cells was detected by CCK-8 kit.

[3] = biological target: novel coronavirus envelope protein (2-E) ion channel (Severe acute respiratory syndrome coronavirus 2, UniProt P0DTC4); assay: Novel coronavirus envelope protein (2-E) ion channel activity test, planar lipid bilayer (BLM); assay type: biochemical, SARS-CoV-2; details: room temperature, 1, 10, 50, 100 μM, read-out: Inhibition against 2-E ion channels IC50
[4] = tested on: inflammatory factor mRNA in Raw 264.7 cells; assay: mRNA levels of inflammatory indicators in TNF-α-induced inflammation model of Raw264.7 cells (Q-PCR); assay type: cell-based; details: 10 ng/ml TNF-α, 1 μM compound, 16 hours
Procedure: (§2) In this embodiment, the effect of compounds on TNF-α-induced inflammation levels in Raw 264.7 cells was analyzed by cell viability combined with inflammatory factor expression levels; cell viability was analyzed by CCK-8 assay; and mRNA expression levels of inflammation-associated indicators were detected by real-time quantitative PCR (Q-PCR) method. Raw 264.7 cells were purchased from ATCC, CCK-8 kit was purchased from Meilunbio, item number MA0218-3, TNF-α was purchased from Merck, item no. GF314.
Experimental methods: first, 5*10^4 cells/well Raw 264.7 cells were placed in 12-well plates and incubated overnight. On the second day, 0.1% DMSO was added to the control cells, 10 ng/ml TNF-α as well as 0.1% DMSO was added to the model group, 10 ng/ml TNF-α as well as 1 μM of the compounds (oxyacanthine hydrochloride (oxy), 1, 2, tetrandrine (tet), 3, 4, 6, 58) was added to the treatment group, and the 12-well plates were sterilized and incubated in a constant temperature incubator for 16 hours. Cellular mRNA was extracted by lysis using Trizol (Yisheng, 10606ES60) and detected by real-time quantitative PCR after reverse transcription, the primers are the same as in Table 2.

Raw 264.7 cells = assay: Cell viability in TNF-α induced inflammation model of Raw 264.7 cells (CCK-8); assay type: cell-based; details: 10 ng/ml TNF-α, 1 μM compound, 16 hours
Procedure: as §2
Experimental methods: first, 8000 cells/well Raw 264.7 cells were placed in 96-well plates and incubated overnight. On the second day, 0.1% DMSO was added to the control cells, 10 ng/ml TNF-α as well as 0.1% DMSO was added to the model group, 10 ng/ml TNF-α as well as 1 μM of the compounds (oxyacanthine hydrochloride (oxy), 1, 2, tetrandrine (tet), 3, 4, 6, 58) was added to the treatment group, and the 96-well plates were sterilized and incubated in a constant temperature incubator for 16 hours. Finally, the viability of the cells was detected using the CCK-8 kit.

ALM12 hepatocytes = assay: Anti H2O2-induced necrotic injury assay in ALM12 hepatocytes (microscopy, CCK-8); assay type: cell-based; details: 2 mM H2O2, 1 μM compound, 3 hours, microscope and CCK-8
Procedure: In this example, the effect of the compounds of the present invention on the level of necrotic injury induced by H2O2 in ALM12 hepatocytes was analyzed by microscopic morphological observations, cell viability in combination with cell death-associated molecules. Cell viability was analyzed by CCK-8 assay. ALM12 cells were cultured in 1640 medium (gibco, c11995500BT)+10% FBS (gibco, 10099141C) in a constant temperature incubator at 37° C., 5% CO2; the CCK-8 kit was purchased from Meilunbio, item no. MA0218-3; H2O2 was purchased from Sinopharm Chemical Reagent Co. item no. 10011208.
as §1, with “ALM12” for “A549”, “2 mM H2O2” for “10 ng/ml TGF-β1”, “3” for “72”

HCoV OC43 virus = assay: Inhibition against HCoV OC43 virus replication; assay type: cell-based, human coronavirus HCoV OC43; details: for EC50: Betacoronavirus 1, OC43
hNav1.5 sodium channel [5] = biological target: T1, hNav1.5 sodium channel
From the text: as §3, §4, §5

T1 sequence (Q14524 whole entry): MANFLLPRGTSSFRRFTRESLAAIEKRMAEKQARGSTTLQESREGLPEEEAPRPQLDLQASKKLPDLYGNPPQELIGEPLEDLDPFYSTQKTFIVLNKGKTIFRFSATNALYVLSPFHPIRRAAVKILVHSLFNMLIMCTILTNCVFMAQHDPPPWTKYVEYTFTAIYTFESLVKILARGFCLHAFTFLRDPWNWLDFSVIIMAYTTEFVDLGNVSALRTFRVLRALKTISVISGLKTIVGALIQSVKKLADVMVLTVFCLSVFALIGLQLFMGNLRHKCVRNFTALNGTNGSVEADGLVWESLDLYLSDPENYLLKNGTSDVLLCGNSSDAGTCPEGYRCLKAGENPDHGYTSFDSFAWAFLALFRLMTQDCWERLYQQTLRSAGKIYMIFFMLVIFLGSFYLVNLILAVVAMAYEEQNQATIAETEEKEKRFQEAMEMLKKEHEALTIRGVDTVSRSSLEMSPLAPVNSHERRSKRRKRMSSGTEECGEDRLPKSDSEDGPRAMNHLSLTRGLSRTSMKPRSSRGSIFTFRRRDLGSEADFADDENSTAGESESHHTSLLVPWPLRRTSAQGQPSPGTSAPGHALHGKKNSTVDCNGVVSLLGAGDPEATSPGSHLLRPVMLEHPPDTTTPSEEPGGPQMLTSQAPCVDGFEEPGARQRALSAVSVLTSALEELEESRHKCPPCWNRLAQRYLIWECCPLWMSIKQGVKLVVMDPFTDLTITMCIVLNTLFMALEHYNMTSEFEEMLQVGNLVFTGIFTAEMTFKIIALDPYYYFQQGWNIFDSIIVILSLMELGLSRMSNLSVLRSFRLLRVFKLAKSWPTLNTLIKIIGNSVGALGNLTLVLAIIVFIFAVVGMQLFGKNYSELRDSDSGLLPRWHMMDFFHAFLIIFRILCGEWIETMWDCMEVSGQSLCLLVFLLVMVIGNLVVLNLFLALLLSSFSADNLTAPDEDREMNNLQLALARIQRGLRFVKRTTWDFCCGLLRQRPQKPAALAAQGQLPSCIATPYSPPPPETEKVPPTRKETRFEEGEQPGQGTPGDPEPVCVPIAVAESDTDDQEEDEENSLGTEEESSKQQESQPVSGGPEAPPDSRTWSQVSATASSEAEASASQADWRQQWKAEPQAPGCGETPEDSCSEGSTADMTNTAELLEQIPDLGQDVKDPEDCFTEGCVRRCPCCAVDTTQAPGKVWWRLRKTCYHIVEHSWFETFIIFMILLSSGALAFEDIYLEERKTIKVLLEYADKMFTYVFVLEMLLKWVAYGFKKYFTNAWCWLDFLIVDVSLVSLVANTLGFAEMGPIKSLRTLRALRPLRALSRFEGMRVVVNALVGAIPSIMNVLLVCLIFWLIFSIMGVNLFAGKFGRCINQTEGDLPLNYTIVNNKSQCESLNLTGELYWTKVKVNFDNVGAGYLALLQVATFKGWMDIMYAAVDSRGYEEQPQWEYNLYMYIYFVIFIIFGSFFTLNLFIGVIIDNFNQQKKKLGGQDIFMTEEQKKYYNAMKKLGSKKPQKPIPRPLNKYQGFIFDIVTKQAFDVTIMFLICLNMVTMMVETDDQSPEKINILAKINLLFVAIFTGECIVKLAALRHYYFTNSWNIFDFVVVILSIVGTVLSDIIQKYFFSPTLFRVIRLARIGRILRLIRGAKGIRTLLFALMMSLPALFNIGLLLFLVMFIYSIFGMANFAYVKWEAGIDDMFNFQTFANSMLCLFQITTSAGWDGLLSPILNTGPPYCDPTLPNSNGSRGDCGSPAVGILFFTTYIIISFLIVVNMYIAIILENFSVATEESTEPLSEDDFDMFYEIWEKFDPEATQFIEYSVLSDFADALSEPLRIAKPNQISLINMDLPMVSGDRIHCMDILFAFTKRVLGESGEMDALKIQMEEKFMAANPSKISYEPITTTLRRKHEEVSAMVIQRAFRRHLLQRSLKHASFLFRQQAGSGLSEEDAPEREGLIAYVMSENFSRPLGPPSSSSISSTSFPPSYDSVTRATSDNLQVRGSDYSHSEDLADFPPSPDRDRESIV
Sequence of novel coronavirus envelope protein (2-E) ion channel (P0DTC4 whole entry, looked up): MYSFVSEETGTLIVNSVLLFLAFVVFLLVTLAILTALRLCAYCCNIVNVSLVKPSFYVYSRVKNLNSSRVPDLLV

With COc1cc2c3cc1Oc1c(OC)c(OC)cc4c1[C@H](Cc1ccc(cc1)Oc1cc(ccc1C(N)=O)C[C@H]3N(C)CC2)N(C)CC4 [Compound 4] the IC50 (hNav1.5 sodium channel [1]) was > 50 µM, the “activity against Nav1.5 channels” value (hNav1.5 sodium channel [1]) was “weakly active” and the “alleviation of TGF-β1-induced fibrosis in A549 lung epithelial cells (Collagen1, α-SMA by WB)” value [2] was “alleviated; also recorded: partially alleviate fibrosis”. For the same molecule, the IC50 [3] was < 1 µM, the “inhibition of inflammatory factors (mRNA) in TNF-α-induced inflammation model” value [4] was “significantly inhibited inflammatory factors; also recorded: significant inhibition” and the “cell viability in TNF-α-induced inflammation model” value (Raw 264.7 cells) was “did not affect cell viability”. For the same molecule, the “alleviation of H2O2-induced ALM12 hepatocyte injury” value (ALM12 hepatocytes) was “significantly alleviated”, the “inhibition against human coronavirus HCoV OC43” value (HCoV OC43 virus) was “strong inhibition” and the EC50 (HCoV OC43 virus) was 5 µM.

For CCCCNC(=O)Oc1ccc2cc1Oc1ccc(cc1)C[C@H]1c3c(cc(OC)c(OC)c3Oc3cc4c(cc3OC)CCN(C)[C@@H]4C2)CCN1C [Compound 2], the IC50 (hNav1.5 sodium channel [1]) was > 10 µM, the “activity against Nav1.5 channels” value (hNav1.5 sodium channel [5]) was “weakly active” and the “alleviation of TGF-β1-induced fibrosis in A549 lung epithelial cells (Collagen1, α-SMA by WB)” value [2] was “alleviated; also recorded: partially alleviate fibrosis”. For the same molecule, the IC50 [3] was < 10 µM, the “inhibition of inflammatory factors (mRNA) in TNF-α-induced inflammation model” value [4] was “significantly inhibited inflammatory factors; also recorded: significant inhibition” and the “cell viability in TNF-α-induced inflammation model” value (Raw 264.7 cells) was “did not affect cell viability”. For the same molecule, the “alleviation of H2O2-induced ALM12 hepatocyte injury” value (ALM12 hepatocytes) was “significantly alleviated”, the “inhibition against human coronavirus HCoV OC43” value (HCoV OC43 virus) was “strong inhibition” and the EC50 (HCoV OC43 virus) was 1.2 µM.

From US20250296937A1, “CYCLIC BISBENZYL TETRAHYDROISOQUINOLINE COMPOUND, AND PREPARATION METHOD THEREFOR AND USE THEREOF” (Shanghai Institute of Materia Medica, Chinesse Academy of …, priority 2021, published 2025)
